Data from US10954214B2 (Janssen Pharmaceutica NV, priority 2016, dated 2021).

What was measured:
[1] = system: IL6 secretion by TMD8 ABC-DLBCL cells; assay: Human IL6 Mesoscale assay (TMD-8); type: cell-based; details: Homo sapiens, TMD8; TMD-8 cells, 24 h
Procedure: (§1) NFKB signaling regulates the secretion of multiple cytokines, including IL6 and IL10. Secretion of the cytokines IL6 and IL10 by TMD8 or OCI-LY3 ABC-DLBCL cells was measured using a mesoscale assay. Inhibition of NFKB signaling by MALT1 or BTK inhibitors results in a decrease of IL6/10 secretion.
(§2) TMD8 or OCI-LY3 cells were propagated in RPMI-1640 (Sigma Aldrich) supplemented with 10% fetal bovine serum (HyClone), 1 mM sodium pyruvate (Invitrogen), 2 mM L-glutamine (Sigma Aldrich) and 1% PenStrep (Sigma Aldrich). Cell passage number should not exceed 30. Cells should be kept between 0.5-2.5 million cells per mL during culturing and cells should be supplemented every 2-3 days with fresh 50 μM beta-mercaptoenthanol. No beta-mercaptoethanol was used during the mesoscale assay.
(§3) For the Mesoscale assay, 100,000 TMD8 or OCI-LY3 cells were seeded per well into black-colored 96-well plates with clear bottom (Corning #3904) and test compounds were added in 9 dilution steps (1:2) ranging from 15 μM to 58.6 nM (final DMSO concentration 0.3%). DMSO control wells were used to determine the maximum signal (High Control (HC)). Treatment with the BTK inhibitor RN486 in a dose range from 30 nM to 131 pM (9 dilutions of 1:2) served as a positive control for NFKB pathway inhibition and was used to determine the maximum inhibition (Low Control (LC)). Compounds and cells were incubated for 24 h at 37° C. and 5% CO2 (assay volume is 150 μL). After 24 h of incubation 50 μL of the supernatant was transferred to a MSD plate (V-Plex Proinflammation Panel 1 (human) kit, Mesoscale (MSD)) and incubated for 2 h with vigorous shaking (600 rpm) at room temperature. Following incubation, plates were washed 3× with PBS+0.05% Tween-20 and 25 μL detection antibody solution (IL6 & IL10 antibodies in diluent 3 (MSD)) was added per well followed by 2 h of incubation with vigorous shaking (600 rpm) at room temperature. After 3× washes with PBS+0.05% Tween-20, plates were incubated with 150 μL 2× Read Buffer T and read on SECTOR imager.

[2] = target: full-length MALT1 protein (Strep-MALT1(1-824)-His) (Homo sapiens (Human), UniProt Q9UDY8); assay: MALT1 Biochemical Protease Assay (Ac-LRSR-AMC substrate); details: 10 nM FL MALT1, 200 μM Ac-LRSR-AMC, 4 h at RT; read-out: MALT1_Biochemical activity (Ac-LRSR-amc) IC50
Procedure: The tetrapeptide LRSR is coupled to AMC (7-amino-4-methylcoumarin) and provides a quenched, fluorescent substrate for the MALT1 protease (SM Biochemicals). […] Test compound concentrations ranged from 30 μM to 0.5 nM using 11 dilution steps (1:3). Background signal was measured from control wells containing assay buffer without enzyme which functions as low control (LC). High control (HC) values were generated using the reaction with enzyme but no compound treatment. Compounds were pre-incubated with MALT1 enzyme for 50 minutes at RT. […] The reaction was subsequently incubated for 4 h at RT and fluorescence was measured.
LC=Median of the low control values
An estimate of the slope of the plot in terms of the Hill coefficient was also obtained. IC50 Calculation:
[formula] With • UB=upper bound • LB=lower bound Used in “Lexis Dose Response Curve Fitting” Version 1.0.

[3] = system: IL10 secretion by TMD8 ABC-DLBCL cells; assay: Human IL10 Mesoscale assay (TMD-8); type: cell-based; details: Homo sapiens, TMD8; TMD-8 cells, 24 h
Procedure: as §1, §2, §3

Sequence of full-length MALT1 protein (Strep-MALT1(1-824)-His) (Q9UDY8 whole entry): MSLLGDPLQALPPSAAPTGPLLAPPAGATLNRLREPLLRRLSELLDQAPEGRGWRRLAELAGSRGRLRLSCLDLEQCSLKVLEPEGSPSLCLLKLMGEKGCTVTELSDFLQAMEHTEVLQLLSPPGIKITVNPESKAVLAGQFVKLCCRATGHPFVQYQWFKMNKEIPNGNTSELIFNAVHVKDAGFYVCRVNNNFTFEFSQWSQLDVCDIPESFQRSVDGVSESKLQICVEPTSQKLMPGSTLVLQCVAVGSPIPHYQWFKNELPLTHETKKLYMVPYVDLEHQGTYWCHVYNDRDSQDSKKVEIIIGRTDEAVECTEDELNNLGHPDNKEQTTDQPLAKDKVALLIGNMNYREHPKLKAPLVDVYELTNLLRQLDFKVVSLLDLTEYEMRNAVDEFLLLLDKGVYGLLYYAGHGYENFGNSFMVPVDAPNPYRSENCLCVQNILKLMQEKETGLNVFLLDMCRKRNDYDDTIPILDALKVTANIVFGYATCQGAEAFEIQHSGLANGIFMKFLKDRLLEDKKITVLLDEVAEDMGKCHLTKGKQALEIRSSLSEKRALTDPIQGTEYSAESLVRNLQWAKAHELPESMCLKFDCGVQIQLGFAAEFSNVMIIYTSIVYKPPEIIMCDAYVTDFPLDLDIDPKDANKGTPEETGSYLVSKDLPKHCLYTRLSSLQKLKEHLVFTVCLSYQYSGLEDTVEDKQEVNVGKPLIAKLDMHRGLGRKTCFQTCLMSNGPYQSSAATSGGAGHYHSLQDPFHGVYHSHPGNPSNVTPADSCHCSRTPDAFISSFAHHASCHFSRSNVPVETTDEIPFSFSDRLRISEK

Structure (SMILES)	IC50 [1] [nM]	IC50 [2] [nM]	IC50 [3] [nM]
O=C1CO[C@@H](c2ncc(-n3ncc(C(=O)Nc4cnc(-n5nccn5)c(Cl)c4)c3C(F)(F)F)c3ccccc23)C1 (single isomer, unassigned) [Cpd 438, (*R)—N-(5-chloro-6-(2H-1,2,3-triazol-2-yl)pyridin-3-yl)-1-(1-(4-oxotetrahydrofuran-2-yl)isoquinolin-4-yl)-5-(trifluoromethyl)-1H-pyrazole-4-carboxamide]	6610	71	2140
Cc1cc(NC(=O)c2cnn(-c3cccc4ncccc34)c2C(F)(F)F)cnc1-c1nnn(C)n1 [Cpd 305, N-(5-methyl-6-(2-methyl-2H-tetrazol-5-yl)pyridin-3-yl)-1-(quinolin-5-yl)-5-(trifluoromethyl)-1H-pyrazole-4-carboxamide]	> 15100	62	7940
CC(F)(F)c1ncc(-n2ncc(C(=O)Nc3cnc(-n4nccn4)c(Cl)c3)c2C(F)(F)F)c2ccccc12 [Cpd 402, N-(5-chloro-6-(2H-1,2,3-triazol-2-yl)pyridin-3-yl)-1-(1-(1,1-difluoroethyl)isoquinolin-4-yl)-5-(trifluoromethyl)-1H-pyrazole-4-carboxamide]	200	178	85
COC(=O)c1cn(-c2ncc(NC(=O)c3cnn(-c4cccc5ncccc45)c3C(F)(F)F)cc2Cl)nn1 [Cpd 249, methyl 1-(3-chloro-5-(1-(quinolin-5-yl)-5-(trifluoromethyl)-1H-pyrazole-4-carboxamido)pyridin-2-yl)-1H-1,2,3-triazole-4-carboxylate]	148	331	148
O=C(O)c1cn(-c2ncc(NC(=O)c3cnn(-c4cccc5ncccc45)c3C(F)(F)F)cc2Cl)nn1 [Cpd 234, 1-(3-chloro-5-(1-(quinolin-5-yl)-5-(trifluoromethyl)-1H-pyrazole-4-carboxamido)pyridin-2-yl)-1H-1,2,3-triazole-4-carboxylic acid]	263	851	141
O=C(Nc1cnc(N2CCCC2=O)c(Cl)c1)c1cnn(-c2cncc3ccccc23)c1C(F)(F)F [Cpd 107, N-(5-chloro-6-(2-oxopyrrolidin-1-yl)pyridin-3-yl)-1-(isoquinolin-4-yl)-5-(trifluoromethyl)-1H-pyrazole-4-carboxamide]	3470	1290	1180
Cc1cc(NC(=O)c2cnn(-c3cccc4c(=O)[nH]ccc34)c2C(F)(F)F)c(C)nc1-n1nccn1 [Cpd 161, N-(2,5-dimethyl-6-(2H-1,2,3-triazol-2-yl)pyridin-3-yl)-1-(1-oxo-1,2-dihydroisoquinolin-5-yl)-5-(trifluoromethyl)-1H-pyrazole-4-carboxamide]	> 15100	282	> 15100
O=C(Nc1cnc(-n2nccn2)c(Cl)c1)c1cnn(-c2cnc(C3CCN3)c3ccccc23)c1C(F)(F)F (stereo not drawn) [Cpd 379, 1-(1-(azetidin-2-yl)isoquinolin-4-yl)-N-(5-chloro-6-(2H-1,2,3-triazol-2-yl)pyridin-3-yl)-5-(trifluoromethyl)-1H-pyrazole-4-carboxamide]	21	501	15
N#Cc1cc(NC(=O)c2cnn(-c3nccn4ccnc34)c2C(F)(F)F)cnc1-n1nccn1 [Cpd 103, N-(5-Cyano-6-(2H-1,2,3-triazol-2-yl)pyridin-3-yl)-1-(imidazo[1,2-a]pyrazin-8-yl)-5-(trifluoromethyl)-1H-pyrazole-4-carboxamide]	> 15000	1510	> 15000
O=C(Nc1cnc(-n2nccn2)c(Cl)c1)c1cnn(-c2cnc(F)c3ccccc23)c1C(F)(F)F [Cpd 264, N-(5-chloro-6-(2H-1,2,3-triazol-2-yl)pyridin-3-yl)-1-(1-fluoroisoquinolin-4-yl)-5-(trifluoromethyl)-1H-pyrazole-4-carboxamide]	123	166	36
N#Cc1cc(NC(=O)c2cnn(-c3ccnc4ccncc34)c2C(F)(F)F)cnc1-n1nccn1 [Cpd 223, N-(5-cyano-6-(2H-1,2,3-triazol-2-yl)pyridin-3-yl)-1-(1,6-naphthyridin-4-yl)-5-(trifluoromethyl)-1H-pyrazole-4-carboxamide]	759	1700	1180
O=C(Nc1cnc(-n2nccn2)c(Cl)c1)c1cnn(-c2ncnc3[nH]ncc23)c1C(F)(F)F [Cpd 222, N-(5-chloro-6-(2H-1,2,3-triazol-2-yl)pyridin-3-yl)-1-(1H-pyrazolo[3,4-d]pyrimidin-4-yl)-5-(trifluoromethyl)-1H-pyrazole-4-carboxamide]	3310	1700	575
Cc1nc(-n2nccn2)c(Cl)cc1NC(=O)c1cnn(-c2cnc(Cl)c3sccc23)c1C(F)(F)F [Cpd 426, N-(5-chloro-2-methyl-6-(2H-1,2,3-triazol-2-yl)pyridin-3-yl)-1-(7-chlorothieno[2,3-c]pyridin-4-yl)-5-(trifluoromethyl)-1H-pyrazole-4-carboxamide]	91	13	60
CS(=O)(=O)c1cc(NC(=O)c2cnn(-c3cccc4ncccc34)c2C(F)(F)F)ccc1-n1nccn1 [Cpd 215, N-(3-(methylsulfonyl)-4-(2H-1,2,3-triazol-2-yl)phenyl)-1-(quinolin-5-yl)-5-(trifluoromethyl)-1H-pyrazole-4-carboxamide]	12300	5750	2090
Cc1cn2c(-n3ncc(C(=O)Nc4ccnc(C(F)(F)F)c4)c3C(F)(F)F)cccc2n1 [Cpd 206, 1-(2-methylimidazo[1,2-a]pyridin-5-yl)-5-(trifluoromethyl)-N-(2-(trifluoromethyl)pyridin-4-yl)-1H-pyrazole-4-carboxamide]	6170	1740	3890
NCc1cnnn1-c1ncc(NC(=O)c2cnn(-c3cccc4ncccc34)c2C(F)(F)F)cc1Cl [Cpd 248, N-(6-(5-(aminomethyl)-1H-1,2,3-triazol-1-yl)-5-chloropyridin-3-yl)-1-(quinolin-5-yl)-5-(trifluoromethyl)-1H-pyrazole-4-carboxamide]	1510	331	468
O=C(Nc1cncc(-n2nccn2)c1)c1cnn(-c2cccc3c(=O)[nH]ccc23)c1C(F)(F)F [Cpd 363, N-(5-(2H-1,2,3-triazol-2-yl)pyridin-3-yl)-1-(1-oxo-1,2-dihydroisoquinolin-5-yl)-5-(trifluoromethyl)-1H-pyrazole-4-carboxamide]	> 302	26300	> 302
Cc1cc(NC(=O)c2cnn(-c3cccc4ncccc34)c2C(F)(F)F)cnc1-c1nnnn1C [Cpd 240]	398	631	135
O=C(Nc1cnc(-n2nccn2)c(Cl)c1)c1c(F)nn(-c2cccc3ncccc23)c1C(F)(F)F [Cpd 160, N-(5-chloro-6-(2H-1,2,3-triazol-2-yl)pyridin-3-yl)-3-fluoro-1-(quinolin-5-yl)-5-(trifluoromethyl)-1H-pyrazole-4-carboxamide]	95	389	93
O=C(Nc1cnc(-n2nccn2)c(Cl)c1)c1cnn(-c2cc(C(F)F)nc3ccccc23)c1C(F)(F)F [Cpd 401, N-(5-chloro-6-(2H-1,2,3-triazol-2-yl)pyridin-3-yl)-1-(2-(difluoromethyl)quinolin-4-yl)-5-(trifluoromethyl)-1H-pyrazole-4-carboxamide]	331	56	132
O=C(Nc1cnc(-n2nccn2)c(Cl)c1)c1cnn(-c2cccc3nccc(C(F)F)c23)c1C(F)(F)F [Cpd 396, N-(5-chloro-6-(2H-1,2,3-triazol-2-yl)pyridin-3-yl)-1-(4-(difluoromethyl)quinolin-5-yl)-5-(trifluoromethyl)-1H-pyrazole-4-carboxamide]	51	447	39
